Assay results from patent publication US5530128A, “N-sulphonylamino derivatives of dipetide compounds as metalloproteinase inhibitors” (Celltech Therapeutics Limited, priority 1992, dated 1996).

What was measured:
Format in all cases: biochemical
[1] = biological target: T1, Gelatinase 72KD (Homo sapiens, UniProt P08253); assay: Enzyme inhibition assay (fluorimetric, peptide substrate Dnp-Pro-Leu-Gly-Trp-Ala-D-Arg-NH2), gelatinase; conditions: true Ki from plot of Ki (app) vs. [S]; pH 7.5, overnight
T1 sequence (P08253 110-660): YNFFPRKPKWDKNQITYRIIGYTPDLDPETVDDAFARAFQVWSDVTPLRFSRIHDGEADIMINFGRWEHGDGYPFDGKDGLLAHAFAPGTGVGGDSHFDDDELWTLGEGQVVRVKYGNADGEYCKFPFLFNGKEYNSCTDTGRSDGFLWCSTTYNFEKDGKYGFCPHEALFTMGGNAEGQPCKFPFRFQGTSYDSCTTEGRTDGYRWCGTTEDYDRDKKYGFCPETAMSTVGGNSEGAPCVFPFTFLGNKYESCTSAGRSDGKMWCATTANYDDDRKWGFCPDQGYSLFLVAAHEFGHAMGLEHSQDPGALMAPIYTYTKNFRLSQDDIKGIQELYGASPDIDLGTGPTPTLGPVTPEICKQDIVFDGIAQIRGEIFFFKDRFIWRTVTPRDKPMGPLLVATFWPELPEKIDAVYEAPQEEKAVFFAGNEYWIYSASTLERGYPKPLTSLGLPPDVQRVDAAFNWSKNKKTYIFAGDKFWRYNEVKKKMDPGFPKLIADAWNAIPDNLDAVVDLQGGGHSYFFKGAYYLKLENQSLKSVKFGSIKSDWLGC
Method: (§1) The activity and selectivity of the compounds of the invention may be determined as described below. All enzyme assays to determine Ki values were performed using the peptide substrate […]. [M. Sharon Stock and Rober D. Gray, JBC 264, 4277-81, 1989]. The enzymes cleave at the Gly-Leu bond which can be followed fluorimetrically by measuring the increase in Trp fluorescence emission associated with the removal of the quenching dinitrophenol (Dnp) group. […] Brij 35 at either room temperature or 37° C. depending on the enzyme. The reaction is stopped by adjusting the pH to 4 using 0.1M sodium acetate buffer and the fluorescence read at an excitation wavelength of 280 nm and emission wavelength of 346 nm. […] For stromelysin and collagenase, Ki (app) was assumed to approximate to the true Ki as [S]<<Km for the substrate hydrolysis. For gelatinase the Ki was determined by performing the analyses at several substrate concentrations. A plot of Ki (app) vs. [S] then gave the true Ki as the value of the y-axis intercept.

[2] = biological target: T2, Collagenase (Homo sapiens, UniProt P03956); assay: Enzyme inhibition assay (fluorimetric, peptide substrate Dnp-Pro-Leu-Gly-Trp-Ala-D-Arg-NH2), collagenase; conditions: Ki (app) assumed to approximate to the true Ki; pH 7.5, overnight
T2 sequence (P03956 100-469): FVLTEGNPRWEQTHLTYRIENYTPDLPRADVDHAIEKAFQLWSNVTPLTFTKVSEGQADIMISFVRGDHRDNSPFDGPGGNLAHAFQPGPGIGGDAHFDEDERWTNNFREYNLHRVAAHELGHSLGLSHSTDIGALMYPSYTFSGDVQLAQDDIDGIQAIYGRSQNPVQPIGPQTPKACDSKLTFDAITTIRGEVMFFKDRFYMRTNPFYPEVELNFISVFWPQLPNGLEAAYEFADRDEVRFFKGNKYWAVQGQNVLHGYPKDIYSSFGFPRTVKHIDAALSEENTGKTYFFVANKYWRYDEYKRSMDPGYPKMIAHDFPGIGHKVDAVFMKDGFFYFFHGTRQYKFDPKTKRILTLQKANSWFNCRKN
Method: as §1

[3] = biological target: Stromelysin-1 (Homo sapiens, UniProt P08254); assay: Enzyme inhibition assay (fluorimetric, peptide substrate Dnp-Pro-Leu-Gly-Trp-Ala-D-Arg-NH2), stromelysin; conditions: Ki (app) assumed to approximate to the true Ki; pH 7.5, overnight
Method: as §1

Stromelysin-1, sequence (P08254 100-477, species assumed): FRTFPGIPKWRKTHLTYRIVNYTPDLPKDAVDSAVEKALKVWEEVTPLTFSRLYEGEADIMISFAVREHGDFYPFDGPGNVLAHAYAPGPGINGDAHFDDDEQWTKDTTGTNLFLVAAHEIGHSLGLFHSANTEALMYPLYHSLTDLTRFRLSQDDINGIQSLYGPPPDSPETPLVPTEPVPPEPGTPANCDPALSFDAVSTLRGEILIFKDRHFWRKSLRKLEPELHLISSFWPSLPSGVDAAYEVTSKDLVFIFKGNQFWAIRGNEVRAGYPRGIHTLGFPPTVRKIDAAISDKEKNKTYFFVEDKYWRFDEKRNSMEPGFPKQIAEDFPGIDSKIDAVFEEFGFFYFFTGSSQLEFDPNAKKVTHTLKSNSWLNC

| Structure (SMILES) | Ki [1] [nM] | Ki [2] [nM] | Ki [3] [nM] |
| --- | --- | --- | --- |
| Cc1ccc(CCC[C@H](CC(=O)O)C(=O)N[C@@H](CC2CCCCC2)C(=O)NCCNS(=O)(=O)N2CCOCC2)cc1 [Example 2, {4-Hydroxy-2-(R)-[3-(4-methylphenyl)propyl]succinyl}-L-β-cyclohexylalanine-N-[(2-morpholinesulphonylamino)ethyl]amide] | 1.43 | 100000 | 802 |
| Cc1ccc(CCC[C@H](CC(=O)NO)C(=O)N[C@@H](CC2CCCCC2)C(=O)NCCNS(=O)(=O)N2CCOCC2)cc1 [Example 3, {4-(N-Hydroxyamino)-2(R)-[3-(4-methylphenyl)propyl]succinyl}-L-β-cyclohexylalanine-N-[(2-morpholinesulphonylamino)ethyl]amide] | – | 385 | 2.75 |
| Cc1ccc(CCC[C@H](CC(=O)NO)C(=O)N[C@@H](CC2CCCCC2)C(=O)NCCCNS(=O)(=O)N(C)C)cc1 [Example 6] | – | 800 | 6.8 |

More lines, in order of falling Ki [2], values ahead:

| Ki [1] [nM] | Ki [2] [nM] | Ki [3] [nM] | Structure (SMILES) |
| --- | --- | --- | --- |
| 0.047 | 554 | 18.7 | Cc1ccc(CCC[C@H](CC(=O)NO)C(=O)N[C@@H](CC2=CCCCC2)C(=O)NCCNS(=O)(=O)N2CCOCC2)cc1 [Example 5, {4-(N-Hydroxyamino)-2(R)-[3-(4-methylphenyl)propyl]succinyl}-L-β-(1-cyclohexenylalanine)-N-[(2-morpholinesphonylamino)ethyl]amide] |
| 0.014 | 302 | 1.73 | O=C(C[C@@H](CCCc1ccc(Cl)cc1)C(=O)N[C@@H](CC1CCCCC1)C(=O)NCCNS(=O)(=O)N1CCOCC1)NO [Example 4, {4-(N-Hydroxyamino)-2(R)-[3-(4-chlorophenyl)propyl]succinyl}-L-β-cyclohexylalanine-N-[(2-morpholinesulphonylamino)ethyl]amide] |
